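48-hour exposure; five concentrations; linearly interpolated endpoints. At the GI50, growth is halved.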 The source made the active and inactive calls. Rule as the data show it: active = GI50 up to about 1.1 µM and inactive = higher.
Assays:
Assay in all cases: NCI tumour cell line growth inhibition, 48 h
T47D = system: T47D
UACC-257 = system: UACC-257
KM12 = system: KM12
LOX IMVI = system: LOX IMVI
HCT-15 = system: HCT-15
M14 = system: M14
OVCAR-5 = system: OVCAR-5
MDA-N = system: MDA-N
SK-MEL-5 = system: SK-MEL-5
HOP-62 = system: HOP-62
OVCAR-8 = system: OVCAR-8
EKVX = system: EKVX
ACHN = system: ACHN
SF-268 = system: SF-268
NCI/ADR-RES = system: NCI/ADR-RES
SN12C = system: SN12C
SK-MEL-28 = system: SK-MEL-28
UO-31 = system: UO-31
NCI-H460 = system: NCI-H460
HOP-92 = system: HOP-92

| SMILES | GI50 (T47D) | GI50 (UACC-257) | GI50 (KM12) | GI50 (LOX IMVI) | GI50 (HCT-15) [µM] | GI50 (M14) | GI50 (OVCAR-5) | GI50 (MDA-N) | GI50 (SK-MEL-5) | GI50 (HOP-62) | GI50 (OVCAR-8) | GI50 (EKVX) | GI50 (ACHN) | GI50 (SF-268) | GI50 (NCI/ADR-RES) | GI50 (SN12C) | GI50 (SK-MEL-28) | GI50 (UO-31) | GI50 (NCI-H460) | GI50 (HOP-92) |
| --- | --- | --- | --- | --- | --- | --- | --- | --- | --- | --- | --- | --- | --- | --- | --- | --- | --- | --- | --- | --- |
| Cc1cc(NS(=O)(=O)c2ccc(Nc3c4ccccc4nc4c(C(=O)NCCO)cccc34)cc2)no1 | 19.7 µM (inactive) | 75.3 µM (inactive) | 23.9 µM (inactive) | 27.6 µM (inactive) | 24.9 | 29 µM (inactive) | 13.3 µM (inactive) | 35.8 µM (inactive) | 23.4 µM (inactive) | 32.9 µM (inactive) | 34.5 µM (inactive) | 60 µM (inactive) | 30.2 µM (inactive) | 30.5 µM (inactive) | > 100 µM (inactive) | 32.7 µM (inactive) | 30.3 µM (inactive) | 25.2 µM (inactive) | 28.6 µM (inactive) | 20.5 µM (inactive) |
| CCOC(=O)/C=C(\C(=O)OCC)n1cc(C)c(=O)n(Cc2cnnn2CCCCOC(C)=O)c1=O | 21.7 µM (inactive) | 15.7 µM (inactive) | 16.7 µM (inactive) | 4.06 µM (inactive) | 2.84 | 20.9 µM (inactive) | 17.4 µM (inactive) | 20.3 µM (inactive) | 17.1 µM (inactive) | 27 µM (inactive) | 3.37 µM (inactive) | 11.3 µM (inactive) | 2.06 µM (inactive) | 15.7 µM (inactive) | 8.79 µM (inactive) | 12.1 µM (inactive) | 7.35 µM (inactive) | 15 µM (inactive) | 12.4 µM (inactive) | 2.1 µM (inactive) |
| Nc1nc(N)nc(CCCc2nc(N)nc(N)n2)n1 | > 100 µM (inactive) | > 100 µM (inactive) | > 100 µM (inactive) | > 100 µM (inactive) | > 100 | > 100 µM (inactive) | > 100 µM (inactive) | > 100 µM (inactive) | > 100 µM (inactive) | > 100 µM (inactive) | > 100 µM (inactive) | > 100 µM (inactive) | > 100 µM (inactive) | > 100 µM (inactive) | > 100 µM (inactive) | > 100 µM (inactive) | > 100 µM (inactive) | > 100 µM (inactive) | > 100 µM (inactive) | > 100 µM (inactive) |
| Nc1c(C(=O)c2ccc(Cl)cc2)[nH]c(Nc2ccc(Cl)cc2)c1C(=S)Nc1ccccc1 | 4.11 µM (inactive) | 11.2 µM (inactive) | 7.6 µM (inactive) | 3.64 µM (inactive) | 4.01 | 11.9 µM (inactive) | 11.8 µM (inactive) | 6.76 µM (inactive) | – | 5.65 µM (inactive) | 3.12 µM (inactive) | 4.9 µM (inactive) | 2.21 µM (inactive) | 4.22 µM (inactive) | 2.53 µM (inactive) | 7.71 µM (inactive) | 4.27 µM (inactive) | 3.73 µM (inactive) | 6.58 µM (inactive) | 5.21 µM (inactive) |
| Nc1nc(Cl)c(N)c(NCC2(CO)CCC(OCc3ccccc3)C2)n1 (stereo not drawn) | 0.372 µM (active) | 0.522 µM (active) | > 100 µM (inactive) | 18.5 µM (inactive) | 61.9 | – | > 100 µM (inactive) | > 100 µM (inactive) | 0.305 µM (active) | > 100 µM (inactive) | > 100 µM (inactive) | 0.931 µM (active) | > 100 µM (inactive) | > 100 µM (inactive) | 13.5 µM (inactive) | > 100 µM (inactive) | > 100 µM (inactive) | > 100 µM (inactive) | > 100 µM (inactive) | > 100 µM (inactive) |
| COc1cc(CNNC(N)=S)cc(OC)c1OC | 7.03 µM (inactive) | > 100 µM (inactive) | > 100 µM (inactive) | > 100 µM (inactive) | > 100 | > 100 µM (inactive) | 95.1 µM (inactive) | > 100 µM (inactive) | > 100 µM (inactive) | 90.6 µM (inactive) | > 100 µM (inactive) | > 100 µM (inactive) | > 100 µM (inactive) | > 100 µM (inactive) | > 100 µM (inactive) | > 100 µM (inactive) | > 100 µM (inactive) | > 100 µM (inactive) | > 100 µM (inactive) | 3.46 µM (inactive) |
| CN(C)c1ccc2c3c(c(=O)oc2c1)CCC3 | 36.1 µM (inactive) | 82.8 µM (inactive) | 41.7 µM (inactive) | 40.6 µM (inactive) | 50.7 | 92.3 µM (inactive) | > 100 µM (inactive) | 97.9 µM (inactive) | 36.8 µM (inactive) | 44 µM (inactive) | 64.4 µM (inactive) | 9.14 µM (inactive) | 58.5 µM (inactive) | 34.8 µM (inactive) | 65.8 µM (inactive) | > 100 µM (inactive) | > 100 µM (inactive) | > 100 µM (inactive) | 83.9 µM (inactive) | 38.7 µM (inactive) |
